Data taken from US9193731B2, “Antimicrobial compounds and methods of making and using the same” (Melinta Therapeutics, Inc., priority 2009, dated 2015).

Tested on: Escherichia coli strain ATCC25922
Assay: standard microdilution assay to determine minimum inhibitory concentrations (MICs)
Assay type: cell-based
Conditions: for MIC: Escherichia coli, ATCC25922, Escherichia coli strain ATCC25922, microdilution, read-out: E. coli ATCC25922 MIC; for E. coli ATCC25922 MIC: Escherichia coli strain ATCC25922, microdilution
How it was run: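 Broth microdilution MIC against E. coli ATCC25922, following CLSI protocols, typically in a 100 microliter final volume. Results reported as +/− relative to a 16 micrograms/ml cutoff.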

Compound	MIC [µg/mL]	E. coli ATCC25922 MIC
N=C(N)NCCCNCc1ccc(-n2cc3cc(-c4cccc(CN5CCNCC5)c4)[nH]c3nc2=O)cc1 [Compound 1233]	< 16	–
NCCc1cn(CCCCO)c2cc(-n3cc4cc(CCS(=O)(=O)C5CCNCC5)[nH]c4nc3=O)ccc12 [Compound 1239]	> 16	–
N=C(N)NCCCNCc1ccc(-n2cc3cc(CCS(=O)(=O)C4CCNCC4)[nH]c3nc2=O)cc1 [Compound 1240]	< 16	–
NCCCNC(=O)c1ccc(-n2cc3cc(-c4ccc(S(=O)(=O)NC5CCNCC5)cc4)[nH]c3nc2=O)cc1OCC1CCNCC1 [Compound 1241]	–	− (a “−” indicates that the compound has an MIC value greater than 16 micrograms/ml)
NC(N)=NCCCNCc1ccc(-n2cc3cc(-c4ccc(S(=O)(=O)NC5CCNCC5)cc4)oc3nc2=O)cc1 [Compound 1242]	–	+ (a “+” indicates that the compound has an MIC value of 16 micrograms/ml or less)
CC(=O)NCCN(C1CCNCC1)S(=O)(=O)c1cccc(-c2cc3cn(-c4ccc(CNCCCN=C(N)N)cc4)c(=O)nc3[nH]2)c1 [Compound 1243]	–	+ (a “+” indicates that the compound has an MIC value of 16 micrograms/ml or less)
N=C(N)NCCCNCc1ccc(-n2cc3cc(C4C[C@@H](N)[C@@H](CO)O4)[nH]c3nc2=O)cc1 (stereo partly drawn) [Compound 1245]	< 16	–
NCCCNCc1ccc(-n2cc3cc(C4C[C@@H](N)[C@@H](CO)O4)[nH]c3nc2=O)cc1 (stereo partly drawn) [Compound 1246]	< 16	–
NCc1ccc(-n2cc3cc(-c4cccc(S(=O)(=O)N(CCn5nccc5N)C5CCNCC5)c4)[nH]c3nc2=O)cc1 [Compound 1248]	> 16	–
NCc1ccc(-n2cc3cc(-c4cccc(S(=O)(=O)N(CCC(N)=O)C5CCNCC5)c4)[nH]c3nc2=O)cc1 [Compound 1249]	> 16	–
COc1ccc(NCCCS(=O)(=O)c2ccc(-c3cc4cn(-c5ccc(CNCCCN=C(N)N)cc5)c(=O)nc4[nH]3)cc2)cc1 [Compound 1250]	–	− (a “−” indicates that the compound has an MIC value greater than 16 micrograms/ml)
NC(N)=NCCCNCc1ccc(-n2cc3cc(CCS(=O)(=O)CCNC4CCNCC4)[nH]c3nc2=O)cc1 [Compound 1251]	–	+ (a “+” indicates that the compound has an MIC value of 16 micrograms/ml or less)
NC(=O)COc1cccc(-n2cc3cc(-c4ccc(S(=O)(=O)NC5CCNCC5)cc4)[nH]c3nc2=O)c1 [Compound 1253]	> 16	–
N=C(N)NCCCNC(=O)c1ccc(-n2cc3cc(-c4cccc(OCCCN)c4)[nH]c3nc2=O)cc1 [Compound 1255]	< 16	–
N=C(N)NCCCNC(=O)c1ccc(-n2cc3cc(C4CCCN(C(=N)N)C4)[nH]c3nc2=O)cc1 (stereo not drawn) [Compound 1256]	< 16	–
N=C(N)NCCCNC(=O)c1ccc(-n2cc3cc(C4CCCNC4)[nH]c3nc2=O)cc1 (stereo not drawn) [Compound 1257]	> 16	–
CCCCn1cc(CCN)c2ccc(-n3cc4cc(CCS(=O)(=O)C5CCNCC5)[nH]c4nc3=O)cc21 [Compound 1258]	> 16	–
N=C(N)NCCCNCc1ccc(-n2cc3cc(-c4cccc(S(=O)(=O)N(CCC(N)=O)C5CCNCC5)c4)[nH]c3nc2=O)cc1 [Compound 1259]	–	+ (a “+” indicates that the compound has an MIC value of 16 micrograms/ml or less)
COc1ccc(NCCCS(=O)(=O)c2ccc(-c3cc4cn(-c5ccc(C(=O)NCCCNC(=N)N)cc5)c(=O)nc4[nH]3)cc2)cc1 [Compound 1260]	–	− (a “−” indicates that the compound has an MIC value greater than 16 micrograms/ml)
N=C(N)NCCCNC(=O)c1ccc(-n2cc3cc(-c4ccc(S(=O)(=O)CCCNC5CCNCC5)cc4)[nH]c3nc2=O)cc1 [Compound 1261]	–	+ (a “+” indicates that the compound has an MIC value of 16 micrograms/ml or less)
N=C(N)NCCCNCc1ccc(-n2cc3cc(-c4cccc(S(=O)(=O)N(CCn5nccc5N)C5CCNCC5)c4)[nH]c3nc2=O)cc1 [Compound 1262]	–	− (a “−” indicates that the compound has an MIC value greater than 16 micrograms/ml)
N=C(N)NCCCNCc1ccc(-n2cc3cc(-c4cccc(OCCCN)c4)[nH]c3nc2=O)cc1F [Compound 1263]	< 16	–
N=C(N)NCCCNCc1ccc(-n2cc3cc([C@H]4C[C@@H](N)[C@@H](CO)O4)[nH]c3nc2=O)cc1 [Compound 1266]	< 16	–
N=C(N)NCCCNCc1ccc(-n2cc3cc([C@@H]4C[C@@H](N)[C@@H](CO)O4)[nH]c3nc2=O)cc1 [Compound 1267]	< 16	–
N=C(N)NCCCNC(=O)c1ccc(-n2cc3cc(-c4ccc(S(=O)(=O)NC5CNC5)cc4)[nH]c3nc2=O)cc1 [Compound 1268]	–	+ (a “+” indicates that the compound has an MIC value of 16 micrograms/ml or less)
COc1cc(-n2cc3cc(-c4cccc(OCCCN)c4)[nH]c3nc2=O)ccc1CNCCCNC(=N)N [Compound 1273]	–	+ (a “+” indicates that the compound has an MIC value of 16 micrograms/ml or less)

Compound	MIC [µg/mL]	E. coli ATCC25922 MIC
CC(=O)NCCCS(=O)(=O)c1ccc(-c2cc3cn(-c4ccc(C(=O)NCCCNC(=N)N)cc4)c(=O)nc3[nH]2)cc1 [Compound 1274]	–	− (a “−” indicates that the compound has an MIC value greater than 16 micrograms/ml)
N=C(N)NCCCNCc1ccc(-n2cc3cc(-c4ccc(S(=O)(=O)CCCNC5CCCOC5)cc4)[nH]c3nc2=O)cc1 (stereo not drawn) [Compound 1275]	–	+ (a “+” indicates that the compound has an MIC value of 16 micrograms/ml or less)
N=C(N)NCCCNC(=O)c1ccc(-n2cc3cc(-c4ccc(S(=O)(=O)CCCNC5CCCNC5)cc4)[nH]c3nc2=O)cc1 (stereo not drawn) [Compound 1276]	–	+ (a “+” indicates that the compound has an MIC value of 16 micrograms/ml or less)
CC(=O)NCCCS(=O)(=O)c1ccc(-c2cc3cn(-c4ccc(CNCCCNC(=N)N)cc4)c(=O)nc3[nH]2)cc1 [Compound 1277]	–	− (a “−” indicates that the compound has an MIC value greater than 16 micrograms/ml)
NCCc1c[nH]c2cc(-n3cc4cc(CCS(=O)(=O)C5CCNCC5)[nH]c4nc3=O)ccc12 [Compound 1278]	> 16	–
Cc1cc(-n2cc3cc(-c4cccc(OCCCN)c4)[nH]c3nc2=O)ccc1CNCCCNC(=N)N [Compound 1280]	–	+ (a “+” indicates that the compound has an MIC value of 16 micrograms/ml or less)
CC(C)(C)NCC(=O)Nc1ccc(-c2cc3cn(-c4ccc(C(=O)NCCCNC(=N)N)cc4)c(=O)nc3[nH]2)cc1 [Compound 1281]	–	+ (a “+” indicates that the compound has an MIC value of 16 micrograms/ml or less)
NCCCc1c[nH]c2cc(-n3cc4cc(CCS(=O)(=O)C5CCNCC5)[nH]c4nc3=O)ccc12 [Compound 1282]	> 16	–
N=C(N)NCCCNC(=O)c1ccc(-n2cc3cc(-c4ccc(S(=O)(=O)CCCNC5CCCOC5)cc4)[nH]c3nc2=O)cc1 (stereo not drawn) [Compound 1284]	–	− (a “−” indicates that the compound has an MIC value greater than 16 micrograms/ml)
N=C(N)NCCCNCc1ccc(-n2cc3cc(-c4ccc(S(=O)(=O)CCCNC5CCNCC5)cc4)[nH]c3nc2=O)cc1 [Compound 1285]	–	+ (a “+” indicates that the compound has an MIC value of 16 micrograms/ml or less)
NCCCNC(=O)CCn1cc2cc(-c3ccc(S(=O)(=O)N[C@@H]4CCCNC4)cc3)[nH]c2nc1=O [Compound 1287]	> 16	–
N=C(N)NCCCNC(=O)Cn1cc2cc(-c3ccc(S(=O)(=O)NC4CCNCC4)cc3)[nH]c2nc1=O [Compound 1289]	–	− (a “−” indicates that the compound has an MIC value greater than 16 micrograms/ml)
N=C(N)NCCCNCc1ccc(-n2cc3cc(-c4ccc(NC(=O)CNC5CCNCC5)cc4)[nH]c3nc2=O)cc1 [Compound 1290]	–	+ (a “+” indicates that the compound has an MIC value of 16 micrograms/ml or less)
N=C(N)N1CCC(NCCCS(=O)(=O)c2ccc(-c3cc4cn(-c5ccc(CNCCCN)cc5)c(=O)nc4[nH]3)cc2)C1 (stereo not drawn) [Compound 1292]	–	+ (a “+” indicates that the compound has an MIC value of 16 micrograms/ml or less)
N=C(N)NCCCNCc1ccc(-n2cc3cc(-c4ccc(S(=O)(=O)CCCNC5CCCNC5)cc4)[nH]c3nc2=O)cc1 (stereo not drawn) [Compound 1293]	–	+ (a “+” indicates that the compound has an MIC value of 16 micrograms/ml or less)
NCCC(=O)NCCCn1cc2cc(-c3ccc(S(=O)(=O)N[C@@H]4CCCNC4)cc3)[nH]c2nc1=O [Compound 1298]	> 16	–
NCc1ccc(-n2cc3cc(C4C[C@@H](N)[C@@H](CO)O4)[nH]c3nc2=O)cc1 (stereo partly drawn) [Compound 1301]	> 16	–
Cc1cc(-n2cc3cc(-c4ccc(S(=O)(=O)NC5CCCNC5)cc4)[nH]c3nc2=O)ccc1CNCCCNC(=N)N (stereo not drawn) [Compound 1309]	–	+ (a “+” indicates that the compound has an MIC value of 16 micrograms/ml or less)
N=C(N)NCCCNC(=O)c1ccc(-n2cc3cc(-c4ccc(S(=O)(=O)NC5CCNC5)cc4)[nH]c3nc2=O)cc1 (stereo not drawn) [Compound 1310]	–	+ (a “+” indicates that the compound has an MIC value of 16 micrograms/ml or less)
CC(C)(CN)COc1cccc(-c2cc3cn(-c4ccc(CNCCCNC(=N)N)cc4)c(=O)nc3[nH]2)c1 [Compound 1327]	–	+ (a “+” indicates that the compound has an MIC value of 16 micrograms/ml or less)
COc1cc(-n2cc3cc(-c4cccc(OCC(C)(C)CN)c4)[nH]c3nc2=O)ccc1CNCCCNC(=N)N [Compound 1328]	–	+ (a “+” indicates that the compound has an MIC value of 16 micrograms/ml or less)
N=C(N)NCCCNCc1ccc(C2N=c3cc(C4CNCCO4)[nH]c3=NC2=O)cc1 (stereo not drawn) [Compound 1329]	> 16	–
N=C(N)NCCCNCc1ccc(-n2cc3cc(-c4ccc(S(=O)(=O)CCCNC5CCNC5)cc4)[nH]c3nc2=O)cc1 (stereo not drawn) [Compound 1330]	–	+ (a “+” indicates that the compound has an MIC value of 16 micrograms/ml or less)
N=C(N)NCCCNCc1ccc(C2N=c3cc(-c4cccc(O)c4)[nH]c3=NC2=O)cc1 (stereo not drawn) [Compound 1334]	< 16	–
N=C(N)NCCCNCc1ccc(-n2cc3cc(C4CN(C(=N)N)CCO4)[nH]c3nc2=O)cc1 (stereo not drawn) [Compound 1335]	< 16	–
